According to patent publication US8815234B2, “Treatment of human or animal body surface infection” (Insense Limited, priority 2009, dated 2014):

Test system: Trichophyton rubrum
Assay: In vitro flat bed static diffusion model, kill curves of Trichophyton rubrum
Type: cell-based
Conditions: for effect of peroxidase in disc at lowest concentration compared to the test treatment alone: 1 μg ml^−1 enzyme in disc plus active topical treatment; for potentiation of the effects of the topical treatment by peroxidase within the disc (words): 1, 100 and 500 μg/ml enzyme in disc plus active topical treatment; for relative potency of horseradish peroxidase versus lactoperoxidase in enhancing fungal killing (words): enzyme in disc plus active topical treatment
Experimental: Test discs were soaked in 50% serum containing 10^7 fungal cells to re-create a high protein environment. They were placed on a gel bed, also containing 50% serum to mimic contact with the nail bed. The discs were dosed with aqueous solutions of either horse radish peroxidase or lactoperoxidase, each set of discs having different dose levels of the enzymes. Control discs were left with no peroxidase of any kind. The experiment was started by applying hydrogen peroxide generating stratified patches (see below) to the surfaces of most of the test discs, and these were left in place for defined periods of time. Some discs were left uncovered as additional experimental controls to determine how well the fungal cells survived when left untreated. At set time-intervals, representative discs were removed for sampling, and the numbers of surviving fungal cells were determined by standard methods.
An in vitro flat bed static diffusion model was utilised, based upon the techniques described in “In vitro diffusion bed, 3-day repeat challenge ‘capacity’ test for antimicrobial wound dressings”, J. Greenman, R. M. S. Thorn, S. Saad, A. Austin International Wound Journal (2006), 3, 322-329.
The test inoculum was prepared by emulsifying mature surface growth biomass of Trichophyton rubrum on potato dextrose agar in Saboraud liquid medium, removing the suspension, vortex mixing, and then allowing large particles to settle out of solution. The resulting suspension was adjusted via spectrophotometry to give a standardised inoculum around 10^7 cfu ml^−1, which is sufficiently dense to enable any fungicidal effects to be detected (>10^3 cfu reduction is seen as indicative of a cidal effect).
A 100 μl volume of the defined inocula was re-suspended in replicate cellulose discs on the surface of a poly-AMPS test bed (the formulation of which is identical to the Layer 1 hydrogel as described in Example 1, but cast as a 25 g gel sheet per 10×10 cm dish), whereby test products can then be applied (FIG. 1). A two layer dressing was tested. The layers were prepared as described in Example 1. Lactoperoxidase or horse radish peroxidase enzymes were prepared by dissolving in analytical water at the required concentration prior to use. It is thought that lactoperoxidase may potentiate any antifungal effects of the novel topical treatment, and for some of the experimental systems cellulose discs were pre-treated with a lactoperoxidase or horseradish peroxidise solution to ascertain differential effects.
The two layer dressings were activated by bringing the two layers together. The hydrogel sheet was placed into contact with the cellulose disc and the dry film then applied to the uppermost surface of the hydrogel sheet. Test beds were incubated at 28° C., and at set time intervals (0, 1, 2, 4 & 24 h); cellulose discs were removed, re-suspended in PBSa, serially diluted and then spiral plated onto Saboraud dextrose agar. After incubation (5 days) the number of dermatophyte survivors at different time points after treatment exposure was determined by colony counting (cfu disc^−1). The results were graphed and analysed using GraphPad Prism (v.4).

Substance	effect of peroxidase in disc at lowest concentration compared to the test treatment alone	potentiation of the effects of the topical treatment by peroxidase within the disc (words)	potentiation of the effects of the topical treatment by peroxidase within the disc (words) (listed as horse radish peroxidise)	relative potency of horseradish peroxidase versus lactoperoxidase in enhancing fungal killing (words) (listed as horse radish peroxidase)	relative potency of horseradish peroxidase versus lactoperoxidase in enhancing fungal killing (words) (listed as horseradish peroxidise)	potentiation of the effects of the topical treatment by peroxidase within the disc (words) (listed as peroxidise)
horseradish peroxidase [Horseradish peroxidise]	has a significant effect	potentiates the effects of the topical treatment in a concentration dependent manner	potentiate the effects of the topical treatment	more potent than lactoperoxidase	more efficacious	–
lactoperoxidase	no significant effect compared to the test treatment alone	potentiate the effects of the topical treatment in a concentration dependant manner	–	–	–	potentiate the effects of the topical treatment
